# Data from US10688084B2 (priority 2016, dated 2020).
# Like-named read-outs stand apart in the source and are kept apart here.
# Experiments:
# [1] = tested on: Wistar rats; experiment: Gastric toxicity (ulcerogenic effect), single intragastric administration, 4-point scale; type: in vivo, rat; conditions: for Gastrotoxic effect (averaged), points: 2000 mg/kg single intragastric, 3 hours
# Protocol: In the study of gastric toxicity were taken female and male Wistar rats aged 6-7 weeks, with a body mass of 180-220 g. The number of animals in each group was 10.
# Three hours after the administration of the suspension of the test substance at a dose of 2000 mg/kg (in 0.5% aqueous solution of Tween-80), the animals were euthanized; their stomachs were removed, dissected along the lesser curvature, and washed in physiological solution to remove the contents.
# Evaluation of gastric toxicity was performed on a 4-point scale:
# 1—single minor injuries (1 or 2 point hemorrhages);
# 2—multiple injuries (erosion, spot hemorrhages);
# 3—significant and multiple injuries of the mucosa (erosion, hemorrhage);
# 4—gross injuries covering the entire surface of the mucosa (massive hemorrhages, erosion, perforations).
# According to the results of the assessment, UD50 was determined—the dose of the tested substance causing gastrotoxic (ulcerogenic) effect corresponding to 2 points.
# The introduction to rats is carried out in the amount of no more than 5 ml/200 g.
# Animals were euthanized by carbon dioxide inhalation method.
# At a single introduction of formula I compound at a dose of 2000 mg/kg, the gastrotoxic effect corresponded to an average of 0.6 points in male rats and 0.4 in females (Table 4).
# [2] = tested on: Wistar rats; type: in vivo
# Protocol: In the study of analgesic properties of the formula I compound, were taken female and male Wistar rats aged 6-7 weeks with a body mass of 180-220 g. The number of animals in each group was 10.
# […] inflammation was modeled in rats by subplantar administration of 0.1 ml of a 1% solution of carrageenin (a sulfated polysaccharide from Irish sea moss) into the right hind paw. The substance was administered intragastrically using a gastric probe.
# Inflammatory hyperalgesia (increased pain sensitivity of inflamed tissues in rats) was caused by carrageenin and was assessed by decrease of the pain sensitivity threshold—PST (by PST difference) to mechanical irritation (squeezing) of the paw tissue of the animal before the introduction of carrageenin and 3 hours after it. The measurement was performed on the inflamed paw. Used analgesimeter Ugo Basile S.R.L. (Italy) provides a gradual increased afterload on the rat's inflamed paw until a pain reaction appears (assessed by squeaking of animal or withdrawing the paw). The analyte was administered 2 h after carrageenin administration. […] An increase in the pain response threshold under the influence of the substances under study was expressed in an increase in the force of compression of the limb and characterized the intensity of the analgesic effect of the preparation. After the experiment, animals were euthanized by carbon dioxide inhalation method.
# The introduction to rats was carried out in the amount of no more than 1 ml/100 g. The concentration of the resulting solution was 5 mg/ml.
# To prepare a dose of 20 mg/kg, 40 ml of solution with a concentration of 5 mg/ml (50 mg/kg) were taken, transferred to a 100 ml measuring flask with accuracy class A, adjusted to 100 ml with 0.5% water solution of Tween-80 and the suspension was dispersed to a homogeneous consistency using a dispersant.
# To prepare a dose of 10 mg/kg, 20 ml of solution with a concentration of 5 mg/ml (50 mg/kg) were taken, transferred to a 100 ml measuring flask with accuracy class A, adjusted to 100 ml with 0.5% aqueous solution of Tween-80 and the suspension was stirred to a homogeneous consistency with a magnetic stirrer MR Hei-Standard (Heidolph, Germany).
# To prepare a dose of 5 mg/kg, […] of solution with a concentration of 5 mg/ml (50 mg/kg) were taken, transferred to a 100 ml measuring flask with accuracy class A, adjusted to 100 ml with 0.5% water solution of Tween-80 and the suspension was stirred to a homogeneous consistency with a magnetic stirrer.
smiles,measurement,setting,value
"COc1ccc2cc([C@H](C)C(=O)OCc3cnc(C)c(OC(=O)[C@@H](C)c4ccc5cc(OC)ccc5c4)c3COC(=O)[C@@H](C)c3ccc4cc(OC)ccc4c3)ccc2c1 [Compound of formula I, 3-((S)-2-(6-methoxynaphth-2-yl)propanoiloxy)-4,5-bis (((S)-2-(6-methoxinaphtht-2-yl)propanoiloxy)methyl)-2-methylpyridinium (S)-2-(6-methoxynaphth-2-yl) propanoate]",UD50,[1]; females,>2000 mg/kg
same,"Gastrotoxic effect (averaged), points",[1]; females,0.4 points
same,UD50,[1]; males,>2000 mg/kg
same,"Gastrotoxic effect (averaged), points",[1]; males,0.6 points
same,Times less gastrotoxic than naproxen (UD50),[1]; vs naproxen,40 times
same,UD50,[1]; without sex distinction,>2000 mg/kg
same,UD50,"[1]; without sex distinction, listed as compound of formula I",> 2000 mg/kg
same,"Analgesic effect, total/analgesic effect","[2]; females, 5 mg/kg",10/9
same,Paw volume 0 hours,"[2]; females, 5 mg/kg",3.9 ± 1.4
same,Paw volume 3 hours,"[2]; females, 5 mg/kg",7.2 ± 3.2
same,"Analgesic effect, %","[2]; females, 5 mg/kg, control = 100.0",282.0 ± 125.9%
same,"Analgesic effect, total/analgesic effect","[2]; females, 10 mg/kg",10/8
same,Paw volume 0 hours,"[2]; females, 10 mg/kg",4.3 ± 2.2
same,Paw volume 3 hours,"[2]; females, 10 mg/kg",10.5 ± 7.2
same,"Analgesic effect, %","[2]; females, 10 mg/kg, control = 100.0",408.2 ± 279.3%
same,"Analgesic effect, total/analgesic effect","[2]; females, 20 mg/kg",10/9
same,Paw volume 0 hours,"[2]; females, 20 mg/kg",4.6 ± 3.3
same,Paw volume 3 hours,"[2]; females, 20 mg/kg",9.1 ± 7.4
same,"Analgesic effect, %","[2]; females, 20 mg/kg, control = 100.0",353.5 ± 289.7%
same,"Analgesic effect, total/analgesic effect","[2]; females, 50 mg/kg",10/7
same,Paw volume 0 hours,"[2]; females, 50 mg/kg",8.9 ± 5.7
same,Paw volume 3 hours,"[2]; females, 50 mg/kg",12.4 ± 6.5
same,"Analgesic effect, %","[2]; females, 50 mg/kg, control = 100.0",484.4 ± 251.8%
same,Dose at which a pronounced anesthetic effect is exhibited,[2]; intragastric,5 mg/kg
same,"Analgesic effect, total/analgesic effect","[2]; males, 5 mg/kg",10/7
same,"Analgesic effect, total/analgesic effect","[2]; males, 10 mg/kg",10/10
same,"Analgesic effect, total/analgesic effect","[2]; males, 20 mg/kg",10/9
same,"Analgesic effect, total/analgesic effect","[2]; males, 50 mg/kg",10/8
same,"Analgesic effect, %","[2]; rat, in vivo, 5 mg/kg",259.9 ± 229.7%
same,Paw volume 0 hours,"[2]; rat, in vivo, 5 mg/kg",4.4 ± 2.7
same,Paw volume 3 hours,"[2]; rat, in vivo, 5 mg/kg",5.5 ± 2.5
same,"Analgesic effect, %","[2]; rat, in vivo, 10 mg/kg",453.7 ± 159.9%
same,Paw volume 0 hours,"[2]; rat, in vivo, 10 mg/kg",4.2 ± 2.4
same,Paw volume 3 hours,"[2]; rat, in vivo, 10 mg/kg",12.0 ± 4.6
same,"Analgesic effect, %","[2]; rat, in vivo, 20 mg/kg",418.1 ± 215.7%
same,Paw volume 0 hours,"[2]; rat, in vivo, 20 mg/kg",6.4 ± 5.7
same,Paw volume 3 hours,"[2]; rat, in vivo, 20 mg/kg",12.0 ± 6.2
same,"Analgesic effect, %","[2]; rat, in vivo, 50 mg/kg",367.9 ± 220.1%
same,Paw volume 0 hours,"[2]; rat, in vivo, 50 mg/kg",3.4 ± 2.3
same,Paw volume 3 hours,"[2]; rat, in vivo, 50 mg/kg",10.6 ± 6.3
